According to patent publication US7109338B2, “1,2-disubstituted 1,4-dihydro-4-oxoquinoline compounds” (priority 1999, dated 2006):
Converted amounts (≈) assume the structure as drawn.

How the values were obtained:
HRV 89 (41617-Gallo) = experiment: Anti-rhinovirus activity (MTT), HRV89; format: cell-based, human rhinovirus; conditions: HeLa (Ohio strain) cells, MTT method, 33° C.
HeLa cells = experiment: Cytotoxicity (MTT, without virus), HeLa; conditions: HeLa, no virus, incubated for 4 days
HRV 2 (HGP) = experiment: Anti-rhinovirus activity (MTT), HRV2; format: cell-based, human rhinovirus; conditions: HeLa (Ohio strain) cells, MTT method, 33° C.
HeLa (Ohio strain)cells = experiment: Cytotoxicity (MTT, without virus), HeLa(Ohio); conditions: HeLa(Ohio), no virus, incubated for 4 days
[1] = test system: coxsackievirus type A7 (CA7); experiment: In vitro anti-picornavirus activity (MTT), CA7; format: cell-based; conditions: HeLa-S3 cells, MTT method, 37° C.
[2] = test system: Poliovirus type 1 (Polio 1, Sabin); experiment: microbe, parasite or virus in culture; format: cell-based
HeLa-S3 cells = experiment: Cytotoxicity (MTT, without virus), HeLa-S3; conditions: HeLa-S3, no virus, incubated for 4 days
[3] = test system: echovirus type 11 (Echo 11, Gregory); experiment: In vitro anti-picornavirus activity (MTT), Echo 11; format: cell-based; conditions: HeLa-S3 cells, MTT method, 37° C.
[4] = test system: coxsackievirus type B4 (CB4,JVB); experiment: In vitro anti-picornavirus activity (MTT), CB4; format: cell-based; conditions: HeLa cells, MTT method, 37° C.
[5] = test system: human rhinovirus type 1B (HRV 1B, B632); experiment: Anti-rhinovirus activity (MTT), HRV1B; format: cell-based; conditions: HeLa (Ohio strain) cells, MTT method, 33° C.

SMILES	IC50 HRV89 (HRV 89 (41617-Gallo)) [µg/mL]	Cytotoxicity CC50 HeLa (HeLa cells) [µg/mL]	IC50 HRV2 (HRV 2 (HGP)) [µg/mL]	Cytotoxicity CC50 HeLa(Ohio) (HeLa (Ohio strain)cells) [µg/mL]	IC50 CA7 [1] [µg/mL]	IC50 Polio 1 [2] [µg/mL]	Cytotoxicity CC50 HeLa-S3 (HeLa-S3 cells) [µg/mL]	IC50 Echo 11 [3] [µg/mL]	IC50 CB4 [4] [µg/mL]	IC50 HRV1B [5] [µg/mL]
CCn1c(-c2cccc(OC)c2)c(C)c(=O)c2cc(C(C)C)ccc21 [Compound A78]	2.9 (≈ 8.65 µM)	>8	1.7 (≈ 5.07 µM)	>8	7.1 (≈ 21.2 µM)	1.3 (≈ 3.88 µM)	>8	1.2 (≈ 3.58 µM)	2.6 (≈ 7.75 µM)	5.6 (≈ 16.7 µM)
COc1ccc(-c2c(C)c(=O)c3cc(OCC(C)C)c(C)cc3n2C)cc1C [Compound A237]	0.46 (≈ 1.21 µM)	>4	0.29 (≈ 0.764 µM)	>4	>4	1.1 (≈ 2.9 µM)	>4	0.40 (≈ 1.05 µM)	2.9 (≈ 7.64 µM)	2.0 (≈ 5.27 µM)
CCn1c(-c2ccccc2)c(C)c(=O)c2cc(NCC(C)C)ccc21.O [Compound A159]	0.73	>5	0.48	>5	2.7	0.51	>5	0.26	3.0	0.78
Cc1c(-c2cccs2)n(C)c2ccc(OCC(C)C)c(C)c2c1=O [Compound A318]	0.16 (≈ 0.469 µM)	>2.5	0.38 (≈ 1.11 µM)	>2.5	2.0 (≈ 5.86 µM)	0.47 (≈ 1.38 µM)	>2.5	0.27 (≈ 0.791 µM)	0.65 (≈ 1.9 µM)	0.45 (≈ 1.32 µM)
CCn1c(-c2ccccc2)c(C)c(=O)c2cc(OCC(C)C)c(C)cc21 [Compound A235]	0.35 (≈ 1 µM)	>4	0.24 (≈ 0.687 µM)	>4	2.8 (≈ 8.01 µM)	0.72 (≈ 2.06 µM)	>4	0.27 (≈ 0.773 µM)	2.9 (≈ 8.3 µM)	0.75 (≈ 2.15 µM)
CC(C)c1ccc2c(c1)c(=O)cc(-c1ccco1)n2C [Compound A303]	1.9 (≈ 7.11 µM)	>20	0.97 (≈ 3.63 µM)	>20	6.5 (≈ 24.3 µM)	1.4 (≈ 5.24 µM)	>20	0.83 (≈ 3.1 µM)	3.6 (≈ 13.5 µM)	1.4 (≈ 5.24 µM)
CCn1c(-c2cccc(C)c2)c(C)c(=O)c2c(Cl)c(OCC(C)C)ccc21 [Compound A181]	0.46 (≈ 1.2 µM)	>2.5	0.94 (≈ 2.45 µM)	>2.5	2.4 (≈ 6.25 µM)	0.39 (≈ 1.02 µM)	>2.5	0.24 (≈ 0.625 µM)	1.8 (≈ 4.69 µM)	1.6 (≈ 4.17 µM)
CCn1c(-c2ccccc2)c(C)c(=O)c2cc(OCC(C)C)ccc21 [Compound A130]	0.72 (≈ 2.15 µM)	>4	0.65 (≈ 1.94 µM)	>4	0.17 (≈ 0.507 µM)	0.86 (≈ 2.56 µM)	>4	0.32 (≈ 0.954 µM)	>4	0.90 (≈ 2.68 µM)
CCn1c(-c2ccccn2)cc(=O)c2cc(C(C)C)ccc21 [Compound A296]	4.8 (≈ 16.4 µM)	75	2.0 (≈ 6.84 µM)	68	20 (≈ 68.4 µM)	5.1 (≈ 17.4 µM)	>100	1.7 (≈ 5.81 µM)	17 (≈ 58.1 µM)	4.5 (≈ 15.4 µM)
CCn1c(-c2ccccc2)c(C)c(=O)c2ccc(C(C)C)cc21 [Compound A122]	0.35 (≈ 1.15 µM)	>10	0.43 (≈ 1.41 µM)	>10	6.9 (≈ 22.6 µM)	1.2 (≈ 3.93 µM)	>10	0.54 (≈ 1.77 µM)	5.5 (≈ 18 µM)	0.59 (≈ 1.93 µM)
CC(C)c1ccc2c(c1)c(=O)cc(-c1ccn(C)c1)n2C [Compound A306]	0.88 (≈ 3.14 µM)	14	0.73 (≈ 2.6 µM)	25	2.9 (≈ 10.3 µM)	0.83 (≈ 2.96 µM)	26	0.49 (≈ 1.75 µM)	2.1 (≈ 7.49 µM)	0.89 (≈ 3.17 µM)
COc1c(OCC(C)C)ccc2c1c(=O)c(C)c(-c1ccccc1)n2C [Compound A196]	0.86 (≈ 2.45 µM)	>10	1.8 (≈ 5.12 µM)	>10	9.7 (≈ 27.6 µM)	1.1 (≈ 3.13 µM)	>10	0.44 (≈ 1.25 µM)	1.9 (≈ 5.41 µM)	5.9 (≈ 16.8 µM)
CCn1c(-c2ccccc2)c(C)c(=O)c2cc(-c3ccccc3)ccc21 [Compound A171]	0.39 (≈ 1.15 µM)	>2.5	0.76 (≈ 2.24 µM)	>2.5	1.9 (≈ 5.6 µM)	0.52 (≈ 1.53 µM)	>2.5	0.22 (≈ 0.648 µM)	2.0 (≈ 5.89 µM)	0.43 (≈ 1.27 µM)
CCn1c(-c2ccsc2)cc(=O)c2cc(C(C)C)ccc21 [Compound A313]	0.96 (≈ 3.23 µM)	18	0.33 (≈ 1.11 µM)	15	3.8 (≈ 12.8 µM)	0.94 (≈ 3.16 µM)	>20	0.35 (≈ 1.18 µM)	3.0 (≈ 10.1 µM)	0.90 (≈ 3.03 µM)
CCn1c(-c2ccc(C)s2)cc(=O)c2cc(C(C)C)ccc21 [Compound A315]	0.26 (≈ 0.835 µM)	7.1	0.28 (≈ 0.899 µM)	>10	1.2 (≈ 3.85 µM)	0.54 (≈ 1.73 µM)	>10	0.30 (≈ 0.963 µM)	0.63 (≈ 2.02 µM)	0.52 (≈ 1.67 µM)
Cc1ccc(-c2cc(=O)c3cc(C(C)C)ccc3n2C)s1 [Compound A314]	0.38 (≈ 1.28 µM)	7.0	0.55 (≈ 1.85 µM)	>10	1.5 (≈ 5.04 µM)	0.60 (≈ 2.02 µM)	>10	0.51 (≈ 1.71 µM)	0.82 (≈ 2.76 µM)	0.56 (≈ 1.88 µM)
Cc1c(OCC(C)C)ccc2c1c(=O)cc(-c1ccccc1)n2C [Compound A186]	0.26 (≈ 0.809 µM)	>5	>1.7	5.0	3.0 (≈ 9.33 µM)	0.67 (≈ 2.08 µM)	>5	0.27 (≈ 0.84 µM)	1.2 (≈ 3.73 µM)	1.1 (≈ 3.42 µM)
CCn1c(-c2cccc(F)c2)c(C)c(=O)c2cc(C(C)C)ccc21 [Compound A60]	1.1 (≈ 3.4 µM)	5.3	0.52 (≈ 1.61 µM)	5.7	2.5 (≈ 7.73 µM)	1.1 (≈ 3.4 µM)	7.0	0.52 (≈ 1.61 µM)	2.8 (≈ 8.66 µM)	0.59 (≈ 1.82 µM)
COc1ccc(-n2c(-c3ccccc3)c(C)c(=O)c3cc(C(C)C)ccc32)cc1 [Compound A326]	0.067 (≈ 0.175 µM)	>2.5	0.48 (≈ 1.25 µM)	>2.5	>2.5	>2.5	>2.5	>2.5	>2.5	>2.5
Cc1c(-c2ccccc2)n(-c2ccccc2F)c2ccc(C(C)C)cc2c1=O [Compound A321]	0.066 (≈ 0.178 µM)	–	0.056 (≈ 0.151 µM)	>1	–	–	–	–	–	0.60 (≈ 1.62 µM)
